pIC50: −log10 of the molar value. Active and inactive are the calls of the source. The calls are words filed in the database; no cut-off is given here.
Experiments:
[1] = Inhibition of nicotinic cholinergic receptor in rat PC12 cells assessed as inhibition of nicotine-stimulated [3H]-norepinephrine release after 30 mins by liquid scintillation counting analysis; type: cell-based; settings: PC-12
[2] = (§1) Inhibition of nicotinic cholinergic receptor in rat PC12 cells assessed as inhibition of nicotine-stimulated 45Ca2+ uptake after 2 mins by liquid scintillation counting analysis; type: cell-based; settings: PC-12, 2 min
PC-12 [3] = assay: as §1; type: cell-based
PC-12 [4] = assay: Cytotoxicity against rat PC12 cells assessed as cell viability at 5 to 10 uM after 24 hrs by trypan blue exclusion assay relative to control; type: cell-based; settings: pc-12, 24 h
PC-12 [5] = assay: Noncompetitive inhibition of nicotinic cholinergic receptor in rat PC12 cells assessed as inhibition of 100 to 1000 uM nicotine-induced [3H]-norepinephrine release at 5 uM after 30 mins by liquid scintillation counting analysis; type: cell-based
PC-12 [6] = assay: Inhibition of ionomycin-mediated catecholamine secretion in rat PC12 cells at 5 uM after 30 mins by liquid scintillation counting analysis; type: functional, cell-based
PC-12 [7] = assay: Inhibition of ATP-induced P2X receptor activation in rat PC12 cells assessed as inhibition of catecholamine secretion at 5 uM after 30 mins by liquid scintillation counting analysis; type: cell-based
PC-12 [8] = assay: Inhibition of BaCl2-induced potassium channel blockade in rat PC12 cells assessed as inhibition of catecholamine secretion at 5 uM after 30 mins by liquid scintillation counting analysis; type: functional, cell-based
PC-12 [9] = assay: Inhibition of KCl-induced membrane depolarization in rat PC12 cells assessed as inhibition of catecholamine secretion at 5 uM after 30 mins by liquid scintillation counting analysis; type: functional, cell-based
PC-12 [10] = assay: Inhibition of nicotinic cholinergic receptor-mediated [3H]-norepinephrine release in rat PC12 cells after 30 mins by liquid scintillation counting analysis; type: cell-based
Mus musculus [11] = assay: Toxicity in BPH/2J mouse polygenic hypertensive model assessed as reflex tachycardia at 5 ug/g, ip measured for 24 hrs by telemetry; type: organism-based; settings: in vivo
Mus musculus [12] = assay: Antihypertensive activity in BPH/2J mouse polygenic hypertensive model assessed as reduction in heart rate at 5 ug/g, ip measured for 24 hrs by telemetry; type: functional
Mus musculus [13] = assay: Antihypertensive activity in BPH/2J mouse polygenic hypertensive model assessed as reduction in diastolic blood pressure at 5 ug/g, ip up to 60 mins by telemetry; type: functional, Artery
Mus musculus [14] = assay: Antihypertensive activity in BPH/2J mouse polygenic hypertensive model assessed as reduction in systolic blood pressure at 5 ug/g, ip up to 60 mins by telemetry; type: functional, Artery

Cc1ccnc(NS(=O)(=O)c2ccc(/N=N/c3cc(/N=N/c4ccccc4)c(N)nc3N)cc2)n1
pIC50 [1]: < 5.30

C/N=C(\NC)c1ccc(NC(=O)Nc2cccc(NC(=O)Nc3ccc(/C(=N/C)NC)cc3)c2)cc1
pIC50 [2]: 7.15 | inhibition (PC-12 [3]): Dose-dependent effect | pIC50 [1]: 7.39

CCN(CC)CC(O)CNC1=N/C(=N/C(=N)Nc2ccc(Cl)c(Cl)c2)N=C(C)C1 (configuration not stated)
Activity (PC-12 [4]): Non-toxic | inhibition (PC-12 [5]): Active | inhibition (PC-12 [6]): inactive | inhibition (PC-12 [7]): inactive | inhibition (PC-12 [8]): inactive | inhibition (PC-12 [9]): inactive | inhibition (PC-12 [10]): inactive | pIC50 [1]: 6.17

Nc1ccc(CCCCc2nc(N)nc(N)c2-c2ccc(Cl)c(Cl)c2)cc1
pIC50 [1]: 5.59

Cc1cc(NC(=O)NCc2ccc(N3C(N)=NC(N)=NC3(C)C)cc2)ccc1S(=O)(=O)F
pIC50 [1]: 6.06

CCN/C(=N\c1cccc(C2=NCCN2)c1)c1ccc(/C(=N/c2cccc(C3=NCCN3)c2)NCC)cc1
pIC50 [1]: 5.80

Nc1nc(N)c(-c2ccc(Cl)cc2)c(CCc2ccc(NC(=O)CBr)cc2)n1
pIC50 [1]: 5.82

Nc1nc(N)c2nc(CNc3ccc(C(=O)N[C@@H](CCC(=O)O)C(=O)O)cc3)cnc2n1 [AMINOPTERIN]
pIC50 [1]: < 5.30

CNC(=O)c1ccc(NC(=O)Nc2cccc(C3=NCCN3)c2)cc1NC(=O)Nc1cccc(C2=NCCN2)c1
pIC50 [1]: 5.85

CNC(=O)c1cc(NC(=O)Nc2cccc(C3=NCCN3)c2)cc(NC(=O)Nc2cccc(C3=NCCN3)c2)c1
pIC50 [2]: 7.00 | inhibition (PC-12 [3]): Dose-dependent effect | Activity (PC-12 [4]): Non-toxic | inhibition (PC-12 [5]): Active | inhibition (PC-12 [6]): inactive | inhibition (PC-12 [7]): inactive | inhibition (PC-12 [8]): inactive | inhibition (PC-12 [9]): inactive | inhibition (PC-12 [10]): inactive | pIC50 [1]: 6.00

O=C(Nc1cc(C2=NCCN2)cc(C2=NCCN2)c1)Nc1cc(C2=NCCN2)cc(C2=NCCN2)c1
pIC50 [1]: < 5.30

C/N=C(\NC)c1ccc(/N=C(\NC)c2ccc(/C(=N/c3ccc(/C(=N/C)NC)cc3)NC)cc2)cc1
pIC50 [1]: 5.77

C[N+](C)(C)CC[N+]1(C)Cc2c(Cl)c(Cl)c(Cl)c(Cl)c2C1
inhibition (PC-12 [5]): Active

CC1(C)N=C(N)N=C(N)N1c1ccc(CNC(=O)Nc2ccccc2)cc1
pIC50 [1]: < 5.30

CCN1CCCC(Nc2cc(C)nc(NC(=N)Nc3ccc(Cl)c(Cl)c3)n2)C1 (configuration not stated)
pIC50 [1]: 5.96

CCN1CCC(CNc2cc(C)nc(NC(=N)Nc3cc(Cl)cc(Cl)c3)n2)C1 (configuration not stated)
pIC50 [1]: 5.72

C/C(=N\NC(=N)N)c1cccc(NC(=S)Nc2cccc(/C(C)=N/NC(=N)N)c2)c1
Activity (Mus musculus [11]): Non-toxic | Activity (Mus musculus [12]): 180 bpm | Activity (Mus musculus [13]): 25 mmHg | Activity (Mus musculus [14]): 33 mmHg | pIC50 [2]: 7.05 | inhibition (PC-12 [3]): Dose-dependent effect | pIC50 [1]: 7.77

C/N=C(\N)c1ccc(/N=C(\N)c2ccc(Cl)c(/C(N)=N/c3ccc(C(=N)NC)cc3)c2)cc1
pIC50 [1]: 5.74

Nc1nc(N)c(/N=N/c2ccc(S(=O)(=O)Nc3ccccn3)cc2)cc1/N=N/c1ccccc1
pIC50 [1]: 5.70

C/N=C(\NC)c1ccc(NC(=O)Nc2ccc(C)c(NC(=O)Nc3ccc(/C(=N/C)NC)cc3)c2)cc1
pIC50 [2]: 7.00 | inhibition (PC-12 [3]): Dose-dependent effect | pIC50 [1]: 7.62

CCN1CCC(CNc2cc(C)nc(NC(=N)Nc3ccc(Cl)c(Cl)c3)n2)C1 (configuration not stated)
pIC50 [1]: 6.35

— ChEMBL document CHEMBL2417387, “Development of a pharmacophore model for the catecholamine release-inhibitory peptide catestatin: virtual screening and functional testing identify novel small molecule therapeutics of hypertension” (Bioorg Med Chem, 2013)
